This note sets out measurements from patent US20220306585A1, “PYRAZOLE DERIVATIVES FOR CONTROLLING ARTHROPODS” (Bayer Animal Health GmbH, priority 2019, published 2022).

In brackets after ≈: the same amount, converted by molar mass.

A short description of series [1]: Measurement of solubility in buffer at pH 6.5. Format: physicochemical. The settings on record: aqueous buffer, kinetic from dmso stock; PBS buffer pH 6.5, shaken 24 h at rt, LC-MSMS; read-out: Solubility of example compounds at pH 6.5. The method, then: Measurement of Solubility in Buffer at pH 6.5 2-4 mg of the test compound are dissolved in DMSO to reach a concentration of 50 g/L (solution A). To 10 μL of this solution 960 μL PBS buffer pH 6.5 are added (final concentration: […]); the mixture is shaken for 24 h at rt in a 96 well plate. An aliquot is centrifuged at 42000 rpm für 30 min. The supernatant is diluted with acetonitrile/water (8:2) 1:10 and 1:1000 resp. This diluted samples are analyzed by LC-MSMS. Calibration: 10 μL of solution A are diluted with 823 μL DMSO (final concentration: 600 μg/mL), which is further diluted with acetonitrile/water 8:2 by a factor of 100 (provides solution B). The calibration curve is obtained from solution B by further diluting with acetonitrile/water 8:2 with target concentrations of 1.2-12-60-600 ng/mL and injecting these four solutions for MS measurement. PBS-Puffer: 6.18 g sodium chloride and 3.96 g sodium dihydrogen phosphate are dissolved in 1 L aqua dist., the pH is adjusted to 6.5 with IN sodium hydroxide.

A short description of series [2]: Measurement of stability of prodrugs in buffer at pH 7.4. It is filed as physicochemical. The note with it: PBS buffer pH 7.4, 37° C., HPLC peak area, read-out: % Recovery after 24 h (stability at pH 7.4). The method, then: Preparation of the PBS buffer solution pH 7.4: 90 g sodium chloride, 13.61 g potassium dihydrogen phosphate, 83.35 g 1M aqueous sodium hydroxide were dissolved in water. More water was added up to a total volume of 1 L. This solution was diluted 1:10 with water. Eventually, pH was adjusted to pH 7.4 by the addition of phosphoric acid.
Measurement of Stability of Prodrugs in Buffer at pH 7.4
0.15 mg of the test compound were dissolved in 0.1 mL dimethylsulfoxide and 0.4 mL acetonitrile. For complete dissolution, the HPLC vial with the sample solution was shaken and treated with ultrasound. Then, 1.0 mL of PBS buffer solution pH 7.4 was added and the sample was vortexed. The sample solution was analysed by HPLC (method 8) to determine the amount of the test compound at a particular time over a period of 24 h at 37° C. The peak areas, given as percentage of total area, are used for quantification. In addition, the reaction mixture was analysed by method 9 (HPLC-MS) at the final timepoint.

Series [3] is described as follows: Degradation of prodrugs and release of parent drug in rat plasma. Format: in vitro ADME. The settings on record: male, Hannover-Janvier RjHan, rat plasma (Li-heparin), 37° C., percent area of prodrug at t0. The method, then:
Measurement of Release of Parent Drug in Rat Plasma 1 mg of the test compound was dissolved in 0.5 mL acetonitrile/dimethylsulfoxide 9:1. For complete dissolution the HPLC vial was shaken and treated with ultrasound. 20 μL of this solution were added to 1 mL of rat plasma (Li-heparin plasma, Hannover-Janvier rat, RjHan male) with vortexing at a temperature of 37° C. Aliquots (100 μL each) were taken at 0.17, 0.5, 1, 1.5, 2 and 4 hours. Each aliquot was transferred to a vial containing 300 μL of acetonitrile/citric acid buffer pH 3 8:2. These solutions were centrifuged at 5000 rpm for 10 minutes. The supernatant was analysed by HPLC (Method 8) to determine the amount of the test compound. In addition, the reaction mixture was analysed by method 9 (HPLC-MS) at the final timepoint. Both decrease of the prodrug concentration and increase of parent drug concentration were monitored. All data is given as percent area of the prodrug at to.

Series [4] relates to Ctenocephalides felis adult. The series is described as follows: Antiparasitic activity after administration to rats: fleas. The settings on record: for In-vivo Efficacy SD2 / In-vivo Efficacy SD9 / In-vivo Efficacy SD16 / In-vivo Efficacy SD23 / In-vivo Efficacy SD30 / In-vivo Efficacy SD37: Ctenocephalides felis adult; for In-vivo Efficacy SD2: study day 2; for In-vivo Efficacy SD9: study day 9; for In-vivo Efficacy SD16: study day 16; for In-vivo Efficacy SD23: study day 23; for In-vivo Efficacy SD30: study day 30; for In-vivo Efficacy SD37: study day 37. Format: in vivo. The method, then: (§1) Measurement of the Antiparasitic Activity after Administration of a Prodrug to Rats Compounds were dissolved in the appropriate volume of glycerol formal (p.a.) just before application to the animals (dose volume was adjusted to 0.03 mL/kg bodyweight). 5 rats per group were either injected intraperitoneally or subcutaneously. Rats were infested with 30 Dermacentor variabilis nymphs on study days −2, 7, 14, 21, 28, 35 and 30 adult Ctenocephalides fleas on study days −1, 8, 15, 22, 29, 36. Parasite counts were performed on study days 2, 9, 16, 23, 30, 37. Percent efficacy was calculated as arithmetic mean parasite numbers as life attached tick numbers and live flea numbers of the respective study group in comparison to parasite counts on a placebo-treated control group. Infestation of groups with less than 75% efficacy on two consecutive counting occasions will terminated for the respective parasite.

The subject of series [5] is Dermacentor variabilis nymph. The series is described as follows: Antiparasitic activity after administration to rats: ticks. The settings on record: for In-vivo Efficacy SD2 / In-vivo Efficacy SD9 / In-vivo Efficacy SD16 / In-vivo Efficacy SD23 / In-vivo Efficacy SD30 / In-vivo Efficacy SD37: Dermacentor variabilis nymph; for In-vivo Efficacy SD2: study day 2; for In-vivo Efficacy SD9: study day 9; for In-vivo Efficacy SD16: study day 16; for In-vivo Efficacy SD23: study day 23; for In-vivo Efficacy SD30: study day 30; for In-vivo Efficacy SD37: study day 37. Format: in vivo. How it is done: as §1

Where [6] appears, read: sc, versus parent drug also injected subcutaneously.

Regarding `N#CC1(N(COC(=O)c2ccc(C(=O)O)cc2)C(=O)c2cc(-c3cnn(-c4c(Cl)cc(C(F)(C(F)(F)F)C(F)(F)F)cc4OC(F)(F)F)c3)ccc2Cl)CC1` [Example 3, 4-({[(2-Chloro-5-{1-[2-chloro-4-(1,1,1,2,3,3,3-heptafluoropropan-2-yl)-6-(trifluoromethoxy)phenyl]-1H-pyrazol-4-yl}benzoyl)(1-cyanocyclopropyl)amino]methoxy}carbonyl)benzoic acid], the solubility at 24 h in series [1] stood at 3 µg/mL (≈ 3.63 µM). In addition, in series [2], the recovery at 24 h, 0.1 mg/mL was 99%. In addition, in series [3], the recovery at 0.17 h, 39 µg/mL was 100%; the recovery at 0.5 h, 39 µg/mL was 100%; the recovery at 1 h, 39 µg/mL was 100%; the recovery at 1.5 h, 39 µg/mL is 100%. Moreover, in series [3], the recovery at 2 h, 39 µg/mL was determined as 100% and the recovery at 4 h, 39 µg/mL stood at 100%. Moreover, in series [4] (12.74 mg/kg sc), the “In-vivo Efficacy SD2” value is reported as 100%, the “In-vivo Efficacy SD9” value is on record as 100%, the “In-vivo Efficacy SD16” value was 100% and the “In-vivo Efficacy SD23” value is recorded as 96%. In addition, in series [4] (12.74 mg/kg sc), the “In-vivo Efficacy SD30” value is 80% and the “In-vivo Efficacy SD37” value was 55%. Besides, in series [5] (12.74 mg/kg sc), the “In-vivo Efficacy SD2” value stood at 99%, the “In-vivo Efficacy SD9” value is listed as 98%, the “In-vivo Efficacy SD16” value is 93% and the “In-vivo Efficacy SD23” value stood at 96%. In series [5] (12.74 mg/kg sc), the “In-vivo Efficacy SD30” value amounted to 85% and the “In-vivo Efficacy SD37” value is reported as 48%.

Take `Cn1nc(C(F)(F)C(F)(F)F)c(C(F)(F)F)c1-n1cc(-c2ccc(Cl)c(C(=O)N(COC(=O)CCCC(=O)O)C3(C#N)CC3)c2)cn1` [Example 4, 5-{[{2-Chloro-5-[2′-methyl-5′-(pentafluoroethyl)-4′-(trifluoromethyl)-2′H-[1,3′-bipyrazol]-4-yl]benzoyl}(1-cyanocyclopropyl)amino]methoxy}-5-oxopentanoic acid]: the solubility at 24 h in series [1] came to 179 µg/mL (≈ 257 µM). Moreover, the recovery at 24 h, 0.1 mg/mL in series [2] is 100%. In series [3], the recovery at 0.17 h, 39 µg/mL amounted to 73%; the recovery at 0.5 h, 39 µg/mL worked out at 42%; the recovery at 1 h, 39 µg/mL is 18%; the recovery at 1.5 h, 39 µg/mL amounted to 9%. In addition, in series [3], the recovery at 2 h, 39 µg/mL was determined as 0% and the recovery at 4 h, 39 µg/mL worked out at 0%. In addition, the “flea efficacy on rats compared with parent drug” value in series [4] (setting [6]) is “superior”. Also, the “tick efficacy on rats compared with parent drug” value in series [5] (setting [6]) was “superior”.

Turning to `N#CC1(N(COC(=O)CCCC(=O)O)C(=O)c2cc(-c3cnn(-c4c(Cl)cc(C(F)(C(F)(F)F)C(F)(F)F)cc4OC(F)(F)F)c3)ccc2Cl)CC1` [Example 9, 5-{[(2-Chloro-5-{1-[2-chloro-4-(1,1,1,2,3,3,3-heptafluoropropan-2-yl)-6-(trifluoromethoxy)phenyl]-1H-pyrazol-4-yl}benzoyl)(1-cyanocyclopropyl)amino]methoxy}-5-oxopentanoic acid], the solubility at 24 h in series [1] was 10 µg/mL (≈ 12.6 µM). In series [2], the recovery at 24 h, 0.1 mg/mL was 100%. Also, in series [3], the recovery at 0.17 h, 39 µg/mL turned out to be 89%; the recovery at 0.5 h, 39 µg/mL came to 77%; the recovery at 1 h, 39 µg/mL was determined as 66%; the recovery at 1.5 h, 39 µg/mL was 56%. In series [3], the recovery at 2 h, 39 µg/mL is 48% and the recovery at 4 h, 39 µg/mL came to 29%. In series [4] (12.22 mg/kg sc), the “In-vivo Efficacy SD2” value worked out at 100%, the “In-vivo Efficacy SD9” value was 97%, the “In-vivo Efficacy SD16” value came to 96% and the “In-vivo Efficacy SD23” value was 97%. Besides, in series [4] (12.22 mg/kg sc), the “In-vivo Efficacy SD30” value amounted to 91% and the “In-vivo Efficacy SD37” value was determined as 46%. Further, in series [5] (12.22 mg/kg sc), the “In-vivo Efficacy SD2” value was 99%, the “In-vivo Efficacy SD9” value turned out to be 100%, the “In-vivo Efficacy SD16” value turned out to be 96% and the “In-vivo Efficacy SD23” value worked out at 98%. In series [5] (12.22 mg/kg sc), the “In-vivo Efficacy SD30” value stood at 85% and the “In-vivo Efficacy SD37” value was 49%.

With `N#CC1(N(COC(=O)[C@H]2CC[C@H](C(=O)O)CC2)C(=O)c2cc(-c3cnn(-c4c(Cl)cc(C(F)(C(F)(F)F)C(F)(F)F)cc4OC(F)(F)F)c3)ccc2Cl)CC1` [Example 11, (trans)-4-({[(2-Chloro-5-{1-[2-chloro-4-(1,1,1,2,3,3,3-heptafluoropropan-2-yl)-6-(trifluoromethoxy)phenyl]-1H-pyrazol-4-yl}benzoyl)(1-cyanocyclopropyl)amino]methoxy}carbonyl)cyclohexane-1-carboxylic acid], the solubility at 24 h in series [1] is 5 µg/mL (≈ 6 µM). In series [2], the recovery at 24 h, 0.1 mg/mL stood at 100%. For the same compound, in series [3], the recovery at 0.17 h, 39 µg/mL is 98%; the recovery at 0.5 h, 39 µg/mL was 96%; the recovery at 1 h, 39 µg/mL amounted to 92%; the recovery at 1.5 h, 39 µg/mL was 89%. Besides, in series [3], the recovery at 2 h, 39 µg/mL was 86% and the recovery at 4 h, 39 µg/mL amounted to 74%. In series [4] (12.84 mg/kg sc), the “In-vivo Efficacy SD2” value came out at 100%, the “In-vivo Efficacy SD9” value is given as 100%, the “In-vivo Efficacy SD16” value was 100% and the “In-vivo Efficacy SD23” value is given as 100%. Besides, in series [4] (12.84 mg/kg sc), the “In-vivo Efficacy SD30” value amounted to 97% and the “In-vivo Efficacy SD37” value is recorded as 76%. Further, in series [5] (12.84 mg/kg sc), the “In-vivo Efficacy SD2” value is recorded as 100%, the “In-vivo Efficacy SD9” value is 100%, the “In-vivo Efficacy SD16” value was determined as 100% and the “In-vivo Efficacy SD23” value is reported as 100%. Besides, in series [5] (12.84 mg/kg sc), the “In-vivo Efficacy SD30” value was found to be 96% and the “In-vivo Efficacy SD37” value worked out at 71%.

Broadly, the solubility is the concentration that dissolves in the medium under given conditions.
